Where two headings read alike, the source gives them in different places. Bridge positions count the residues as written; N and C are the ends. Square brackets hold non-standard residues; d marks the D form. Peptide text beside a SMILES is read from it. * marks the point of attachment. Octanoyl(7-Me) = CC(C)CCCCCC(=O)*; Decanoyl = CCCCCCCCCC(=O)*; dOrn = NCCC[C@@H](N)C(=O)O; X1 = CC[C@H](C)CCCCC(=O)*; Orn = NCCC[C@H](N)C(=O)O; Dab = NCC[C@H](N)C(=O)O; Butyryl = CCCC(=O)*
Experiments:
P. aeruginosa PAO1 = type: cell-based, Pseudomonas aeruginosa
Method: (§1) The minimum inhibitory concentrations (MICs) of brevicidine and laterocidine analogues were determined against a panel of clinically relevant ESKAPE pathogens; Escherichia coli (E. coli), Klebsiella pneumoniae (K. pneumoniae), Acinetobacter baumannii (A. baumannii), Pseudomonas aeruginosa (P. aeuroginosa) and Staphylococcus aureus (S. aureus), which cause the majority of nosocomial infections in the United States.[16] […] In this resistance mechanism, the polymyxin target (lipid A) is modified, reducing binding affinity. For this reason, a strain of colistin-resistant E. coli carrying the mcr-1 gene was also included in the panel. […]
(§2) IV. Antimicrobial testing
(§3) All minimum inhibitory concentrations (MICs) were determined according to Clinical and Standards Laboratory Institute (CLSI) guidelines. Blood agar plates were inoculated with glycerol stocks of E. coli ATCC 25922, K. pneumoniae ATCC 13883, A. baumannii ATCC 17961, P. aeruginosa PAO1 and S. aureus USA300. The inoculated agar plates were then incubated for 16 h at 37 °C . Individually grown colonies were subsequently used to inoculate 5 mL aliquots of TSB that were then incubated at 37 °C with shaking at 220 rpm. E. coli 25922 MCR-1 glycerol stock was used to inoculate 5 mL of TSB supplemented with kanamycin that was then incubated for 16 h at 37 °C with shaking at 220 rpm. The next day the culture was diluted 100 fold in TSB supplemented with kanamycin and incubated at 37 °C with shaking at 220 rpm. In parallel, the lipopeptide antibiotics DMSO stocks to be assessed were serially diluted with MHB in polypropylene 96-well plates (50 µL in each well). Colistin sulfate stocks were dissolved in water before being diluted with MHB. Aliquots of the inoculated TSB were incubated until an OD600 of around 0.5 was reached. The bacterial suspensions were then diluted with MHB (2 x 10^5 CFU mL-1) and added to the microplates containing the test compounds (50 µL to each well). The well-plates were sealed with an adhesive membrane and after 18 h of incubation at 37 °C with shaking at 600 rpm, the wells were visually inspected for bacterial […]
(§4) growth. MIC values reported are based on three technical replicates and defined as the lowest concentration of the compound that prevented visible growth of bacteria. […]
(§5) The values obtained from a read-out at 415 nm were corrected for background (negative control) and transformed to a percentage relative to the positive control.
(§6) VI. HPLC and HRMS analysis of peptides
(§7) Peptide Name Chemical Calcd Mass found Calcd Overall […]

Sheep red blood cells = type: cell-based
Method: Having ascertained the antimicrobial activity of all synthetic peptides against a panel of ESKAPE pathogens, we next assessed their mammalian toxicity with hemolytic assays using sheep red blood cells. The % hemolysis for all peptides at 64 μg mL^−1 was determined, with the hemolysis induced by the surfactant 0.1% Triton X-100 taken as 100%. […] Hemolysis was <1% for all analogues with a C8 chain or shorter, including the strongest antibacterial peptide C8-Lat (22). Hemolytic activity increased up to C14 (>50% for C14-Lat) and then decreased at longer chain lengths, perhaps due to decreased solubility of peptides or aggregation. […]
Phosphate-Buffered Saline (PBS) containing 0.002% Tween20 (buffer) five times. Then, the red blood cells were normalized to obtain a positive control read-out between 2.5 and 3.0 at 415 nm to stay within the linear range with the maximum sensitivity. A serial dilution of the compounds (128 – 1 µg/mL, 75 µL) was prepared in a 96-well polypropylene plate. The outer border of the plate was filled with 75 µL buffer. Each plate contained a positive control (0.1% Triton-X final concentration, 75 µL) and a negative control (buffer, 75 µL) in triplicate. The normalized blood cells (75 µL) were added and the plates were incubated at 37 °C for 1 h while shaking at 500 rpm. A flat-bottom polystyrene plate with 100 µL buffer in each well was prepared. After incubation, the plates were centrifuged (800 g for 5 min at room temperature) and 25 µL of the supernatant was transferred to their respective wells in the flat-bottom plate. The values obtained from a read-out at 415 nm were corrected for background (negative control) and transformed to a percentage relative to the positive control. […]

E. coli ATCC 25922 = type: cell-based, Escherichia coli
Method: as §1, §2, §3, §4, §5, §6, §7

A. baumannii ATCC 17961 = type: cell-based, Acinetobacter baumannii
Method: as §1, §2, §3, §4, §5, §6, §7

K. pneumoniae ATCC 13883 = type: cell-based, Klebsiella pneumoniae
Method: as §1, §2, §3, §4, §5, §6, §7

E. coli ATCC 25922 MCR-1 = type: cell-based, Escherichia coli
Method: as §1
Colisitin sulfate was purchased from Activate Scientific. Kanamycin monosulfate was purchased from MP Biomedicals. E. coli ATCC 25922, S. aureus USA300 (ATCC BAA1717), K. pneumoniae ATCC 13883 and A. baumannii ATCC 17961 belong to the American Type Culture Collection (ATCC). P. aeruginosa PAO1 was kindly provided by L.H.C. Quarles Van Ufford, Utrecht University, Utrecht, The Netherlands. E. coli ATCC 25922 MCR-1 was transfected in house using the pGDP2-MCR1 plasmid kindly provided by Yong-Xin Li, The University of Hong Kong, Hong Kong, China. Sheep blood agar plates (Ref. PB5039A) were purchased from Thermo Scientific. Tryptic soy broth (Ref. 02-200-500) was purchased from Scharlab. Mueller-Hinton broth (Ref. X927.1) was purchased from Carl Roth. Polypropylene 96-wells plates (Ref. 3879) were purchased from Corning. […]
(10.0 mL). 2-Chlorotrityl (CT) chloride resin (2.00 g, 0.81 mmol g-1) and DIPEA (420 µL, 2.40 mmol) were added. […]
A gradient […]
method for C14 - C16 laterocidine was employed, starting at 100% solvent A for 2 min, ramping up to 70 % solvent B over 45 min, ramping up to 100% solvent B over 1 min, remaining there for 6 min before ramping down to 100% solvent A and remaining there for 5 min. High resolution mass spectrometry (HRMS) spectra of brevicidine peptides were recorded by Analytical Services and Environmental Projects (ASEP) at Queen’s University Belfast on a Waters LCT Premier ToF mass spectrometer using the electrospray ionisation (ESI) technique. HRMS spectra of laterocidine peptides were performed on a Thermo Scientific Dionex UltiMate 3000 HPLC system with a Phenomenex Kinetex C18 (2.6 µm, 2.1 x 150 mm) column at 35 °C and equipped with a diode array detector. The following solvent system, at a flow rate of 0.3 mL/min, was used: solvent A = 0.1% formic acid in water, solvent B = 0.1% formic acid in acetonitrile. A gradient method was employed, starting at 95 % solvent A and 5 % solvent B for 1 min, ramping up to 95 % solvent B over 9 min, ramping up to 98 % solvent B over 1 min, remaining there for 1 min before ramping back down to 95 % solvent A over 2 min and remaining there for 1 min.
The system was connected to a Bruker micrOTOF-Q II mass spectrometer (ESI ionization) calibrated internally with sodium […]
as §2
as §3, with “MHB.” for “MHB. Aliquots of the inoculated TSB were incubated until an OD600 of around 0.5 was reached. The bacterial suspensions were then diluted with MHB (2 x 10^5 CFU mL-1) and added to the microplates containing the test compounds (50 µL to each well). The well-plates were sealed with an adhesive membrane and after 18 h of incubation at 37 °C with shaking at 600 rpm, the wells were visually inspected for bacterial”

S. aureus USA300 = type: cell-based, Staphylococcus aureus
Method: as §1, §2, §3, §4, §5, §6, §7

[1] = red cells of sheep, 1 h, 64 μg mL^−1
[2] = colistin-resistant strain carrying mcr-1, CLSI broth microdilution in MHB, 18 h at 37 °C, visual inspection, three technical replicates
[3] = CLSI broth microdilution in MHB, 18 h at 37 °C, visual inspection, three technical replicates

Compound	Antimicrobial activity (MIC) P. aeruginosa PAO1 (P. aeruginosa PAO1; PAO1, 18 h) [µg/mL]	% Hemolytic activity, sheep red blood cells (Sheep red blood cells; [1]) [%]	Antimicrobial activity (MIC) E. coli ATCC 25922 (E. coli ATCC 25922; ATCC 25922, 18 h) [µg/mL]	Antimicrobial activity (MIC) A. baumannii ATCC 17961 (A. baumannii ATCC 17961; ATCC 17961, 18 h) [µg/mL]	Antimicrobial activity (MIC) K. pneumoniae ATCC 13883 (K. pneumoniae ATCC 13883; ATCC 13883, 18 h) [µg/mL]	Antimicrobial activity (MIC) E. coli ATCC 25922 MCR-1 (E. coli ATCC 25922 MCR-1; [2]) [µg/mL]	Antimicrobial activity (MIC) S. aureus USA300 (S. aureus USA300; USA300, 18 h) [µg/mL]	Antimicrobial activity (MIC) P. aeruginosa PAO1 (P. aeruginosa PAO1; [3]) [µg/mL]	% Hemolytic activity, sheep red blood cells (Sheep red blood cells; peptide at 64 μg mL^−1, 1 h at 37 °C in PBS with 0.002% Tween20, read-out at 415 nm, relative to 0.1% Triton X-100 taken as 100%, triplicate) [%]	Antimicrobial activity (MIC) E. coli ATCC 25922 (E. coli ATCC 25922; CLSI broth microdilution in MHB, polypropylene 96-well plates, 18 h at 37 °C, visual inspection, three technical replicates) [µg/mL]	Antimicrobial activity (MIC) A. baumannii ATCC 17961 (A. baumannii ATCC 17961; [3]) [µg/mL]	Antimicrobial activity (MIC) K. pneumoniae ATCC 13883 (K. pneumoniae ATCC 13883; [3]) [µg/mL]	Antimicrobial activity (MIC) E. coli ATCC 25922 MCR-1 (E. coli ATCC 25922 MCR-1; ATCC 25922, 18 h) [µg/mL]	Antimicrobial activity (MIC) S. aureus USA300 (S. aureus USA300; [3]) [µg/mL]
CC[C@H](C)[C@@H]1NC(=O)[C@@H](NC(=O)[C@H](Cc2c[nH]c3ccccc23)NC(=O)[C@@H](CCCN)NC(=O)CNC(=O)[C@H](CCCN)NC(=O)[C@@H](CCCN)NC(=O)[C@@H](Cc2c[nH]c3ccccc23)NC(=O)[C@@H](Cc2ccc(O)cc2)NC(=O)[C@@H](CO)NC(=O)CCCCCC(C)C)[C@@H](C)OC(=O)CNC(=O)CNC(=O)[C@H](CC(N)=O)NC1=O [Compound 2, laterocidine] ({Octanoyl(7-Me)}-[dS][dY][dW][dOrn][Orn]G[dOrn]WTINGG; ester 9-C; N-terminus assumed)	4	0.4	2	2	2 to 4	2	>32	–	–	–	–	–	–	–
CCCC(=O)N[C@H](CO)C(=O)N[C@H](Cc1ccc(O)cc1)C(=O)N[C@H](Cc1c[nH]c2ccccc12)C(=O)N[C@H](CCCN)C(=O)N[C@@H](CCCN)C(=O)NCC(=O)N[C@H](CCCN)C(=O)N[C@@H](Cc1c[nH]c2ccccc12)C(=O)N[C@@H]1C(=O)N[C@@H]([C@@H](C)CC)C(=O)N[C@@H](CC(N)=O)C(=O)NCC(=O)NCC(=O)O[C@@H]1C [Compound 20] (Butyryl-[dS][dY][dW][dOrn][Orn]G[dOrn]WTINGG; ester 9-C)	8	0.3	16	>32	32	32	>32	–	–	–	–	–	–	–
CC[C@H](C)CCCCC(=O)N[C@@H](CCN)C(=O)N[C@H](C(=O)N[C@@H](CCN)C(=O)N[C@H]1CCNC(=O)[C@H]([C@@H](C)O)NC(=O)[C@H](CCN)NC(=O)[C@H](CCN)NC(=O)[C@H](CC(C)C)NC(=O)[C@@H](CC(C)C)NC(=O)[C@H](CCN)NC1=O)[C@@H](C)O [Colistin, colistin, reference compound] (X1-[Dab]T[Dab][Dab][Dab][dL]L[Dab][Dab]T; lactam 4-C (inferred); N-terminus assumed)	–	–	–	–	–	–	–	4	<0.1	0.5	≤0.25	0.5	8	>32
CCCCCCCCCC(=O)N[C@H](CC(N)=O)C(=O)N[C@H](Cc1ccc(O)cc1)C(=O)N[C@H](Cc1c[nH]c2ccccc12)C(=O)N[C@H](CCCN)C(=O)N[C@@H](CCCN)C(=O)NCC(=O)N[C@H](CCCN)C(=O)N[C@@H](Cc1c[nH]c2ccccc12)C(=O)N[C@@H]1C(=O)N[C@@H]([C@@H](C)CC)C(=O)NCC(=O)N[C@@H](CO)C(=O)O[C@@H]1C [Compound 14] (Decanoyl-[dN][dY][dW][dOrn][Orn]G[dOrn]WTIGS; ester 9-C)	8	6.2	4	4	4	4	32	–	–	–	–	–	–	–

— paper PMC9749936, “Synthesis and structure–activity relationship studies of N-terminal analogues of the lipopeptide antibiotics brevicidine and laterocidine” (RSC Medicinal Chemistry, 2022)
